The record followed here is US20240327423A1, “A SERIES OF PYRROLE DERIVATIVES AND THEIR PREPARATION METHOD AND THERAPEUTIC USE” (SHENZHEN SUNGENING BIO-MEDICAL CO., LTD, priority 2020, published 2024).

Structures are written as SMILES. Converted amounts (≈) assume the structure as drawn.

Assay [1] concerns Aspergillus fumigatus (ATCC MYA-4609/AF293/CBS 101355). Description: Measurement of minimum inhibitory concentration (MIC), AF293. In kind it is cell-based. Particulars: CBS101355; Aspergillus fumigatus AF293, 35° C., 48 hours, RPMI1640; read-out: AF293: MIC. An outline of the steps:
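Broth microdilution in RPMI1640 buffered with 0.165M MOPS, pH 7.0, spore inoculum 0.2-2.5×10^4 spores/mL from SDA cultures. Twofold compound dilutions in DMSO, 1% of final volume. Incubated 35 °C for 48 h; growth scored visually with magnifier and OD530 read.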

Assay [2] has as its system Aspergillus fumigatus ATCCMYA-4690 (AF293). Description: Survival rate experiment I of mouse bloodstream infection model with Aspergillus fumigatus. Particulars: immunosuppressed male CD-1 mouse; for day 7 survival rate: 3 mg/kg orally twice daily for 6 days, started 24 hours after infection; for survival time of mouses: 3 mg/kg orally twice daily. In kind it is in vivo. The protocol: Test Case 5: Survival Rate Experiment I of Mouse Bloodstream Infection Model with Aspergillus fumigatus • Experimental animals: male CD-1 mouse, 6-8 weeks old, 10 animals per group. • Induction of immunosuppression: the day of infection is defined as day 0, and mouses are injected intraperitoneally with corresponding doses of cyclophosphamide on day −4 (150 mg/kg), day −1 (100 mg/kg) and day 2 (100 mg/kg). • Microbial pathogen: Aspergillus fumigatus ATCCMYA-4690 (AF293). • Collection conditions of inoculum: culture on SDA culture plates, incubate at 25° C. for at least 7 days, collect with PBS+0.1% Tween 20, and count microscopically; • Inoculation level, route and volume: 3.60E+05 CFU/mouse, tail vein injection, injection volume of 100 μL/mouse; • Treatment: Treatment is started 24 hours after infection, and test compounds are dissolved in PEG400 (0.3 mg/mL), and used for administration orally to mouses at 3 mg/kg, twice daily for 6 days. The administrated mouses are observed for 8 hours.

Assay [3] deals with Aspergillus flavus (ATCC MYA-1004). Briefly: Measurement of minimum inhibitory concentration (MIC), ATCC MYA-1004. In kind it is cell-based. Particulars: Aspergillus flavus ATCC MYA-1004, 35° C., 48 hours. The protocol:
(§1) New streaks are made with glycerol stock solution of the strains of Aspergillus fumigatus (ATCC MYA-4609/AF 293/CBS 101355) on Sabouraud's dextrose agar (SDA), incubate at 35° C. and a humidity of 40-70% for 72 hours. Other strains are processed as the same as AF293.
(§2) RPMI1640: one packet of RPMI1640 powder is dissolved in 1 L purified water and mixed well, add 0.165M MOPS, adjust the pH to 7.0, sterilize by filtration with 0.22 um membrane, and store at 4° C. for no more than 3 months.
(§3) Physiological saline: weigh 9 g of sodium chloride powder and dissolve in 1 L of purified water, and mixed well. Sterilize at 121° C. for 30 min, store at room temperature (RT) for no more than 1 week.
(§4) Dissolve the test compound and stock solution of one control compound with DMSO and obtain solutions at a concentration of 12.8 mg/mL
(§5) The maximum concentration of each compound is 0.8 mg/mL (e.g., 150 μL of dimethyl sulfoxide+10 uL of 12.8 mg/mL compound/control). Column 1 is filled with 40 μL of compound and columns 2 to 11 with 20 μL of dimethyl sulfoxide. Transfer 20 μL of compound from column 1 to column 2 to dilute the concentration. Repeat the above steps up to column 11 to give 2× serial dilutions.
(§6) 2 μL of the above 2× serial dilutions are injected into each hole of the corresponding test plate using a multichannel pipette.
(§7) Drop 5 ml of saline on the Aspergillus fumigatus SDA plate. The spores were carefully wiped off from the surface of the plate with an L-shaped coating rod. Then the suspension is transferred into a sterile tube. After shaking, let the tube stand for 5 to 10 minutes. Count the number of spores in the upper suspension with a hemocytometer and check the purity. Adjust the inoculum concentration to 0.2-2.5×10^4 spores/mL.
(§8) Inject 198 μL of diluted inoculum into each holes of the corresponding test plate using a multichannel pipette.
(§9) Incubate at 35° C. for 48 hours.
(§10) To facilitate scoring of the presence or absence of growth on the wall, a magnifying glass is used. The tested 96-well microplates were photographed and the optical density at 530 nm is read with an enzyme marker (Tecan Spark).

Assay [4] deals with Aspergillus flavus (ATCC 204304). Briefly: Measurement of minimum inhibitory concentration (MIC), ATCC 204304. In kind it is cell-based. Particulars: ATCC204304; Aspergillus flavus ATCC 204304, 35° C., 48 hours. The protocol: as §1, §2, §3, §4, §5, §6, §7, §8, §9, §10
Assay [5] relates to Aspergillus fumigatus ATCCMYA-4690 (AF293). Briefly: Survival rate experiment II of mouse bloodstream infection model with Aspergillus fumigatus. In kind it is in vivo. Particulars: for day 7 survival rate: 3 mg/kg (bid) orally for 6 days, started 24 hours after infection; for survival time of mouses: oral, bid. The protocol:
Test Case 6: Survival Rate Experiment II of Mouse Bloodstream Infection Model with Aspergillus fumigatus • Animal for experiment: male CD-1 mouse, 6-8 weeks old, 10 animals per group. • Induction of immunosuppression: the day of infection is defined as day 0, and mouses are injected intraperitoneally with corresponding doses of cyclophosphamide on day −4 (150 mg/kg), day −1 (100 mg/kg), and day 2 (100 mg/kg), respectively. • Microbial pathogen: Aspergillus fumigatus ATCCMYA-4690 (AF293). • Collection conditions of inoculum: culture on SDA culture plates, incubate at 25° C. for at least 7 days, collect with PBS+0.1% Tween 20, and count microscopically; • Inoculation level, route and volume: 3.90E+05 CFU/mouse, tail vein injection, injection volume of 100 μL/mouse; • Treatment: Treatment is started 24 hours after infection, and test compounds are dissolved in PEG400 (0.3 mg/mL), […] The administrated mouses are observed for 8 hours.

The mark [6] stands for this setting: immunosuppressed male CD-1 mouse.

For `Cc1cc(-c2ccccc2)c(C(=O)C(=O)Nc2cc(F)c3c(c2)OC[C@H]2CN(c4ncc(F)cn4)CCN32)n1C` [Example 5], the MIC in assay [1] is 16 ng/mL (≈ 29.4 nM); in assay [3], 4 ng/mL (≈ 7.35 nM); in assay [4], 4 ng/mL (≈ 7.35 nM). Further, the “day 7 survival rate” value in assay [2] turned out to be 0%.

As to `Cc1cc(-c2ccccc2)c(C(=O)C(=O)Nc2ccc3c(c2)C[C@H]2CN(c4ncc(F)cn4)CCN32)n1C` [Example 33, (S)-2-(1,5-dimethyl-3-phenyl-1H-pyrrol-2-yl)-N-(2-(5-fluoropyrimidin-2-yl)-1,2,3,4,10,10a-hexahydropyrazino[1,2-a]indol-8-yl)-2-oxoacetamide], the MIC in assay [1] stood at 4 ng/mL (≈ 7.83 nM); in assay [3], 8 ng/mL (≈ 15.7 nM); in assay [4], 8 ng/mL (≈ 15.7 nM). Further, the “day 7 survival rate” value was determined as 30% in assay [5] (setting [6]) and 40% in assay [2]. Further, in assay [5] (immunosuppressed male CD-1 mouse, 10 mg/kg (bid)), the survival rate is 80%. For the same molecule, the “survival time of mouses” value in assay [5] (setting [6]) and in assay [2] was “prolong the survival time” each time. The “dose dependence of survival” value in assay [5] (three doses of 1 mg/kg, 3 mg/kg and 10 mg/kg) is “dose-dependent relationship”.

On to `Cc1cc(-c2ccccc2)c(C(=O)C(=O)Nc2ccc(N3CCN(c4ncc(F)cn4)CC3)cc2)n1C` [Example F901318, reference compound], for which the MIC came to 30 ng/mL (≈ 60.2 nM) in assay [1], 4 ng/mL (≈ 8.02 nM) in assay [3] and 4 ng/mL (≈ 8.02 nM) in assay [4]. Besides, the “day 7 survival rate” value in assay [5] (setting [6]) and in assay [2] was 0% in each case. Moreover, the “survival time of mouses” value in assay [5] (setting [6]) and in assay [2] was “prolong the survival time” throughout.

A word on the MIC: it is the lowest concentration found to suppress growth.
